Melting point data for 32 compounds are collected here from patent publication US7494987B2, “Agent for treating respiratory diseases containing 4-hydroxypiperidine derivative as active ingredient” (priority 2002, dated 2009).

Usually melting point stands for the temperature, or range, at which the solid turns liquid.

`CN(CC1(O)CCN(CCc2ccc(C#N)cc2)CC1)c1ccc(C(=O)O)cc1Cl.Cl` had a melting point of 254.2 to 258.9 °C. As for `COc1cc(N(C)CC2(O)CCN(CCc3ccc(C#N)cc3)CC2)c(Cl)cc1C(=O)O.Cl`, the figure is 116.3 to 120.8 °C. In the case of `CN(CC1(O)CCCN(CCc2ccc(C#N)cc2)C1)c1ccc(C(=O)O)cc1.Cl` (centres unmarked), the melting point fell in the range of 220.1 to 233.3 °C. With `CN(CCC1(O)CCN(CCc2ccc(C#N)cc2)CC1)c1ccc(C(=O)O)cc1.Cl`, the melting point was in the range of 231.3 to 236.4 °C. As for `Cc1cc(C(=O)O)ccc1N(C)CC1(O)CCN(CCc2ccc(C#N)cc2)CC1.Cl`, the figure is 127.1 to 132.7 °C.

`CN(CC1(O)CCN(CCc2ccc(C#N)cc2)CC1)c1ccc(C(=O)O)c(Cl)c1.Cl` showed a melting point of 145.2 to 148 °C. `CN(CC1(O)CCN(CCc2ccc(C#N)cc2)CC1)c1ccc(C(=O)NO)cc1.Cl` returned a melting point of 191.3 to 193.9 °C. `CN(CC1(O)CCN(Cc2ccc(C#N)cc2)CC1)c1ccc(C(=O)O)cc1.Cl` registered a melting point of 153.1 to 157.7 °C. For `CN(CC1(O)CCN(CCCc2ccc(C#N)cc2)CC1)c1ccc(C(=O)O)cc1.Cl`, the melting point was in the range of 150.1 to 151.2 °C. As for `CN(CC1(O)CCN(CCOc2ccc(C#N)cc2)CC1)c1ccc(C(=O)O)cc1.Cl`, the melting point is 258.4 to 260.1 °C. As for `COC1(CN(C)c2ccc(C(=O)O)cc2)CCN(CCc2ccc(C#N)cc2)CC1.Cl`, the figure is 226.3 to 230.7 °C; as for `Cl.N#Cc1ccc(CCN2CCC(O)(C[S+]([O-])c3ccc(C(=O)O)cc3)CC2)cc1` (centres unmarked), 279.7 °C (dec.). As to `Cc1cc(C(=O)O)ccc1N(C)CC1(O)CCN(CCc2ccc(C#N)cc2)CC1` [Example 3, 4-({1-[2-(4-cyanophenyl)ethyl]-4-hydroxypiperidin-4-ylmethyl}methylamino)-3-methylbenzoic acid], the melting point lay in the range of 103.6 to 108.7 °C.

Turning to `COc1cc(C(=O)O)ccc1N(C)CC1(O)CCN(CCc2ccc(C#N)cc2)CC1` [Example 4, 4-({1-[2-(4-cyanophenyl)ethyl]-4-hydroxypiperidin-4-ylmethyl}methylamino)-3-methoxybenzoic acid], the melting point was 252.6 °C (dec.).

For the compound `CN(CC1(O)CCN(CCc2ccc(C#N)cc2)CC1)c1ccc(C(=O)O)c(Cl)c1` [Example 5, 2-chloro-4-({1-[2-(4-cyanophenyl)ethyl]-4-hydroxypiperidin-4-ylmethyl}methylamino)benzoic acid], the melting point is 186.2 to 189.6 °C. The result for `CN(CC1(O)CCN(CCc2ccc(C#N)cc2)CC1)c1ccc(C(=O)O)cc1Cl` [Example 6, 3-chloro-4-({1-[2-(4-cyanophenyl)ethyl]-4-hydroxypiperidin-4-ylmethyl}methylamino)benzoic acid] reads 110.7 to 112.4 °C; that for `COc1cc(N(C)CC2(O)CCN(CCc3ccc(C#N)cc3)CC2)c(Cl)cc1C(=O)O` [Example 7, 5-chloro-4-({1-[2-(4-cyanophenyl)ethyl]-4-hydroxypiperidin-4-ylmethyl}methylamino)-2-methoxybenzoic acid], 226.8 to 228.3 °C. As for `CN(CC1(O)CCCN(CCc2ccc(C#N)cc2)C1)c1ccc(C(=O)OC(C)(C)C)cc1` (centres unmarked) [Example 9, tert-butyl 4-({1-[2-(4-cyanophenyl)ethyl]-3-hydroxypiperidin-3-ylmethyl}methylamino)benzoate], the figure is 41.2 to 44.1 °C. As for `COC(=O)c1ccc(N(C)CC2(O)CN(CCc3ccc(C#N)cc3)C2)cc1` [Example 10, methyl 4-({1-[2-(4-cyanophenyl)ethyl]-3-hydroxyazetidin-3-ylmethyl}methylamino)benzoate], the figure is 145.5 to 149.1 °C. Consider `COC(=O)c1ccc(N(C)CC2(O)CCN(CCc3ccc(C#N)cc3)CC2)cc1` [Example 12, methyl 4-({1-[2-(4-cyanophenyl)ethyl]-4-hydroxypiperidin-4-ylmethyl}methylamino)benzoate], for which the melting point is 140.5 to 142.2 °C. Take `COC(=O)c1ccc(OCC2(O)CCN(CCc3ccc(C#N)cc3)CC2)cc1` [Example 13, methyl 4-{1-[2-(4-cyanophenyl)ethyl]-4-hydroxypiperidin-4-ylmethoxy}benzoate]: the melting point is 118.6 to 120.6 °C. As for `CN(CC1(O)CCN(CCc2ccc(C#N)cc2)C1)c1ccc(C(=O)O)cc1` (centres unmarked) [Example 14, 4-({1-[2-(4-cyanophenyl)ethyl]-3-hydroxypyrrolidin-3-ylmethyl}methylamino)benzoic acid], the melting point lay in the range of 106.1 to 130.8 °C.

Turning to `CN(CC1(O)CCCN(CCc2ccc(C#N)cc2)C1)c1ccc(C(=O)O)cc1` (centres unmarked) [Example 15, 4-({1-[2-(4-cyanophenyl)ethyl]-3-hydroxypiperidin-3-ylmethyl}methylamino)benzoic acid], the melting point lay within 166.9 to 181.3 °C. `CN(CCC1(O)CCN(CCc2ccc(C#N)cc2)CC1)c1ccc(C(=O)O)cc1` [Example 16, 4-[(2-{1-[2-(4-cyanophenyl)ethyl]-4-hydroxypiperidin-4-yl}ethyl)methylamino]benzoic acid] had a melting point of 146.8 to 148.4 °C. `CN(CC1(O)CN(CCc2ccc(C#N)cc2)C1)c1ccc(C(=O)O)cc1` [Example 17, 4-({1-[2-(4-cyanophenyl)ethyl]-3-hydroxyazetidin-3-ylmethyl}methylamino)benzoic acid] registered a melting point of 197.9 to 199.4 °C. As for `COC(=O)c1ccc(N(C)CC2(O)CCN(Cc3ccc(C#N)cc3)CC2)cc1` [Example 20, methyl 4-{[1-(4-cyanobenzyl)-4-hydroxypiperidin-4-ylmethyl]methylamino}benzoate], the figure is 127.5 to 137.1 °C; as for `COC(=O)c1ccc(N(C)CC2(O)CCN(CCCc3ccc(C#N)cc3)CC2)cc1` [Example 21, methyl 4-({1-[3-(4-cyanophenyl)propyl]-4-hydroxypiperidin-4-ylmethyl}methylamino)benzoate], 126.8 to 129.7 °C. For the compound `COC(=O)c1ccc(N(C)CC2(O)CCN(CCOc3ccc(C#N)cc3)CC2)cc1` [Example 22, methyl 4-({1-[2-(4-cyanophenoxy)ethyl]-4-hydroxypiperidin-4-ylmethyl}methylamino)benzoate], the melting point lay within 112.5 to 113 °C.

Take `CN(CC1(O)CCN(CCc2ccc(C#N)cc2)CC1)c1ccc(C(=O)NOC2CCCCO2)cc1` (centres unmarked) [Example 23, 4-({1-[2-(4-cyanophenyl)ethyl]-4-hydroxypiperidin-4-ylmethyl}methylamino)-N-(tetrahydropyran-2-yloxy)benzamide]: the melting point was in the range of 100.9 to 102.1 °C. The compound `COC(=O)c1ccc(N(C)CC2(O)CCN(CCc3ccc(C(F)(F)F)cc3)CC2)cc1` [Example 24, methyl 4-({4-hydroxy-1-[2-(4-trifluoromethylphenyl)ethyl]piperidin-4-ylmethyl}methylamino)benzoate] returned a melting point of 142.7 to 143.9 °C. The compound `COC(=O)c1ccc(N(C)CC2(OC)CCN(CCc3ccc(C#N)cc3)CC2)cc1` [Example 25, methyl 4-({1-[2-(4-cyanophenyl)ethyl]-4-methoxypiperidin-4-ylmethyl}methylamino)benzoate] showed a melting point of 126.9 to 134.5 °C. `COC(=O)c1ccc(SCC2(O)CCN(CCc3ccc(C#N)cc3)CC2)cc1` [Example 42, methyl 4-{1-[2-(4-cyanophenyl)ethyl]-4-hydroxypiperidin-4-ylmethylthio}benzoate] yielded a melting point of 119.1 to 120.8 °C.
